The source made the active and inactive calls.

Data set [1] is described as follows: Toxicity in wildtype C57BL/6J mouse assessed as irritation at 0.3 %, SC administered via hind paw and measured within 45 mins. Conditions: in vivo, 0.75 h.
For data set [2], the target named is T1, Transient receptor potential cation channel subfamily A member 1 (Homo sapiens, UniProt O75762). Briefly: Agonist activity at human TRPA1 expressed in HEK293T cells by whole cell patch clamp recordings. The class given is cell-based.
The target of data set [3] is Transient receptor potential cation channel subfamily A member 1 (Mus musculus, UniProt Q8BLA8). Kind of data set: Agonist activity at mouse TRPA1 expressed in HEK293T cells by whole cell patch clamp recordings. It is filed as cell-based. On the technique in general: Patch clamp records ionic current or voltage across a cell membrane.
The subject of data set [4] is Mus musculus. Briefly: Antinociceptive activity in TRPA1 knock-out mouse model of thermal pain assessed as increase in paw lick latency at 20 mg/kg, po preadministered for 30 mins followed by exposure to 55 degreeC and measured up to 4 hrs by hot plate test. It is filed as functional, organism-based.
Data set [5] is described as follows: Selectivity ratio of EC50 for agonist activity at mouse TRPA1 expressed in HEK293T cells to EC50 for agonist activity at human TRPA1 expressed in HEK293T cells. It is filed as cell-based.
The nature of data set [6]: Toxicity in wildtype C57BL/6J mouse assessed as irritation at 1 %, SC administered via hind paw and measured within 45 mins. As to conditions: in vivo, 0.75 h.
The target in data set [7] is T1, Transient receptor potential cation channel subfamily A member 1. Briefly: Irreversible binding affinity to TRPA1 (unknown origin). Conditions: filed as agonist.
Data set [8] deals with Transient receptor potential cation channel subfamily A member 1 (Mus musculus) (UniProt Q8BLA8). Kind of data set: Desensitization of mouse TRPA1 expressed in HEK293T cells assessed as time constant (tau) at 200 uM in presence of Ca2+ containing solution by whole cell patch clamp recording. The class given is cell-based. Conditions: filed as agonist.
For data set [9], the target named is T1, Transient receptor potential cation channel subfamily A member 1. Kind of data set: Agonist activity at human TRPA1 expressed in HEK293T cells assessed as increase in channel opening by measuring single channel conductance at 30 uM in presence of A-967079 by single-channel recordings. The class given is cell-based. Conditions: filed as agonist.
For data set [10] the target is unchanged. Briefly: Agonist activity at human TRPA1 expressed in HEK293T cells assessed as increase in channel opening by measuring open probability at 30 uM in presence of A-967079 by single-channel recordings. The class given is cell-based. As to conditions: filed as agonist.
In data set [11] the test system is Mus musculus. Briefly: Antinociceptive activity in CFA-induced male C57BL/6J mouse model of inflammatory pain assessed as paw withdrawal mechanical threshold at 20 mg/kg, po challenged with CFA for 24 hrs followed by compound administration for 30 mins and measured after 0.5 hrs (reference value: 0.39 +/- 0.05 g). It is filed as functional. As to conditions: time 1 hrs.

Data set [12] has as its system Mus musculus. Kind of data set: Antinociceptive activity in CFA-induced male C57BL/6J mouse model of inflammatory pain assessed as paw withdrawal mechanical threshold at 20 mg/kg, po challenged with CFA for 24 hrs followed by compound administration for 30 mins and measured after 1 hrs (reference value: 0.22 +/- 0.03 g). It is filed as functional. As to conditions: time 1.5 hrs.

Data set [13] has as its system Mus musculus. Briefly: Antinociceptive activity in wildtype female C57BL/6J mouse model of thermal pain assessed as paw withdrawal latency time at 20 mg/kg, po preadministered for 30 mins followed by exposure to 55 degreeC and measured after 120 mins by hot plate test (reference value: 15.65 +/- 1.22 sec). Conditions: time 150 min. The class given is functional. A general note: Hot-plate and tail-flick tests time the reaction to a heat stimulus.

Data set [14] relates to Mus musculus. Kind of data set: Antinociceptive activity in wildtype female C57BL/6J mouse model of thermal pain assessed as paw withdrawal latency time at 20 mg/kg, po preadministered for 30 mins followed by exposure to 55 degreeC and measured immediately by hot plate test (reference value: 16.65 +/- 1.02 sec). As to conditions: 0.5 h. It is filed as functional.
The subject of data set [15] is Mus musculus. Kind of data set: Antinociceptive activity in acetic-acid induced wildtype male C57BL/6J mouse model of visceral pain assessed as reduction in abdominal writhing at 20 mg/kg, po preadministered for 30 mins followed by acetic acid challenge and measured after 15 mins. It is filed as functional, organism-based.
For data set [16], the system named is Mus musculus. Kind of data set: Antinociceptive activity in wildtype female C57BL/6J mouse model of thermal pain assessed as paw withdrawal latency time at 20 mg/kg, po preadministered for 30 mins followed by exposure to 55 degreeC and measured after 60 mins by hot plate test (reference value: 13.65 +/- 0.69 sec). The class given is functional. Conditions: time 90 min, 1.5 h.

Data set [17] deals with Mus musculus. Kind of data set: Antinociceptive activity in wildtype female C57BL/6J mouse model of thermal pain assessed as paw withdrawal latency time at 20 mg/kg, po preadministered for 30 mins followed by exposure to 55 degreeC and measured after 30 mins by hot plate test (reference value: 11.83 +/- 1.25 sec). The class given is functional. As to conditions: time 60 min, 1 h.

For data set [18], the system named is Mus musculus. Kind of data set: Effect on mechanical allodynia in male C57BL/6J mouse assessed as paw withdrawal mechanical threshold at 20 mg/kg, po administered for 30 mins (reference value: 1.77 +/- 0.21 g). It is filed as functional. As to conditions: 0.5 h.
For data set [19], the system named is Mus musculus. Briefly: Antinociceptive activity in CFA-induced male C57BL/6J mouse model of inflammatory pain assessed as paw withdrawal mechanical threshold at 20 mg/kg, po challenged with CFA for 24 hrs followed by compound administration for 30 mins and measured after 4 hrs (reference value: 0.47 +/- 0.10 g). It is filed as functional.
The subject of data set [20] is Mus musculus. Briefly: Antinociceptive activity in CFA-induced male C57BL/6J mouse model of inflammatory pain assessed as paw withdrawal mechanical threshold at 20 mg/kg, po challenged with CFA for 24 hrs followed by compound administration for 30 mins and measured after 2 hrs (reference value: 0.55 +/- 0.13 g). It is filed as functional.
In data set [21] the test system is Mus musculus. Briefly: Antinociceptive activity in wildtype female C57BL/6J mouse model of thermal pain assessed as paw withdrawal latency time at 20 mg/kg, po preadministered for 30 mins followed by exposure to 55 degreeC and measured after 4 hrs by hot plate test (reference value: 17.41 +/- 1.18 sec). It is filed as functional.
For data set [22], the system named is Mus musculus. Kind of data set: Antinociceptive activity in acetic-acid induced TRPA1 knock-out mouse model of visceral pain assessed as reduction in abdominal writhing at 20 mg/kg, po preadministered for 30 mins followed by acetic acid challenge and measured after 15 mins. It is filed as functional, organism-based. (In general: In writhing tests, fewer writhes than in controls are read as antinociception.)

Data set [23] concerns Mus musculus. Briefly: Antinociceptive activity in CFA-induced male C57BL/6J mouse model of inflammatory pain assessed as paw withdrawal mechanical threshold at 20 mg/kg, po challenged with CFA for 24 hrs followed by compound administration for 30 mins and measured immediately (reference value: 0.47 +/ 0.14 g). Conditions: 0.5 h. It is filed as functional.

T1 sequence (O75762 whole entry): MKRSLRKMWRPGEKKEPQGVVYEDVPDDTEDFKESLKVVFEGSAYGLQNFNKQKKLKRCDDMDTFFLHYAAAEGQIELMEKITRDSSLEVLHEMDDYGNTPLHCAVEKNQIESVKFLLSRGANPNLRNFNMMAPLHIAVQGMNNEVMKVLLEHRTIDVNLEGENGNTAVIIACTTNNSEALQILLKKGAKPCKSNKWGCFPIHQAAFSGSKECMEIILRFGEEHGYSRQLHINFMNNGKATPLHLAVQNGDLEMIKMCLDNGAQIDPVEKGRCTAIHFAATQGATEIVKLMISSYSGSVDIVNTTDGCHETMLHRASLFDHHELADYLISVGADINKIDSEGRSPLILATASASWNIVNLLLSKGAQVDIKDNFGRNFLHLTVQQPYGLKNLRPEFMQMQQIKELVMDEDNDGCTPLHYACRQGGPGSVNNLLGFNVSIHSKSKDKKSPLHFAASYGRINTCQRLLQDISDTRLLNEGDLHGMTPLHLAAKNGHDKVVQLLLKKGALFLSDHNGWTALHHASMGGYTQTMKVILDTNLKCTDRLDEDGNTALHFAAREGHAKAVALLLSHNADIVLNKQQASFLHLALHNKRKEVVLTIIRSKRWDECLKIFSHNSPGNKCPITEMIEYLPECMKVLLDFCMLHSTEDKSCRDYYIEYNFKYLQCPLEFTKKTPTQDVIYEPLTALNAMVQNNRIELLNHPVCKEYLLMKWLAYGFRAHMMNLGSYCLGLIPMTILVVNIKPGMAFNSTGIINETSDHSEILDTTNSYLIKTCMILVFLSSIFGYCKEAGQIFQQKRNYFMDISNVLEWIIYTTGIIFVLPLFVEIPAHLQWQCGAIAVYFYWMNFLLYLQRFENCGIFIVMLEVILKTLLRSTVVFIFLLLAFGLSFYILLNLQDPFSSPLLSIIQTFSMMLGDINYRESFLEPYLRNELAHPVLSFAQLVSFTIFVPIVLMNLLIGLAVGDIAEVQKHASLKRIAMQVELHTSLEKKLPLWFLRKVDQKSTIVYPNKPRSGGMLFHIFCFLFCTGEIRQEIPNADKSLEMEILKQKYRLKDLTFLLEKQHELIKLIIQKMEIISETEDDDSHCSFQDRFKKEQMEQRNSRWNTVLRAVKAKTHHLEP
Sequence of Transient receptor potential cation channel subfamily A member 1 (Mus musculus, UniProt Q8BLA8) (Q8BLA8 whole entry): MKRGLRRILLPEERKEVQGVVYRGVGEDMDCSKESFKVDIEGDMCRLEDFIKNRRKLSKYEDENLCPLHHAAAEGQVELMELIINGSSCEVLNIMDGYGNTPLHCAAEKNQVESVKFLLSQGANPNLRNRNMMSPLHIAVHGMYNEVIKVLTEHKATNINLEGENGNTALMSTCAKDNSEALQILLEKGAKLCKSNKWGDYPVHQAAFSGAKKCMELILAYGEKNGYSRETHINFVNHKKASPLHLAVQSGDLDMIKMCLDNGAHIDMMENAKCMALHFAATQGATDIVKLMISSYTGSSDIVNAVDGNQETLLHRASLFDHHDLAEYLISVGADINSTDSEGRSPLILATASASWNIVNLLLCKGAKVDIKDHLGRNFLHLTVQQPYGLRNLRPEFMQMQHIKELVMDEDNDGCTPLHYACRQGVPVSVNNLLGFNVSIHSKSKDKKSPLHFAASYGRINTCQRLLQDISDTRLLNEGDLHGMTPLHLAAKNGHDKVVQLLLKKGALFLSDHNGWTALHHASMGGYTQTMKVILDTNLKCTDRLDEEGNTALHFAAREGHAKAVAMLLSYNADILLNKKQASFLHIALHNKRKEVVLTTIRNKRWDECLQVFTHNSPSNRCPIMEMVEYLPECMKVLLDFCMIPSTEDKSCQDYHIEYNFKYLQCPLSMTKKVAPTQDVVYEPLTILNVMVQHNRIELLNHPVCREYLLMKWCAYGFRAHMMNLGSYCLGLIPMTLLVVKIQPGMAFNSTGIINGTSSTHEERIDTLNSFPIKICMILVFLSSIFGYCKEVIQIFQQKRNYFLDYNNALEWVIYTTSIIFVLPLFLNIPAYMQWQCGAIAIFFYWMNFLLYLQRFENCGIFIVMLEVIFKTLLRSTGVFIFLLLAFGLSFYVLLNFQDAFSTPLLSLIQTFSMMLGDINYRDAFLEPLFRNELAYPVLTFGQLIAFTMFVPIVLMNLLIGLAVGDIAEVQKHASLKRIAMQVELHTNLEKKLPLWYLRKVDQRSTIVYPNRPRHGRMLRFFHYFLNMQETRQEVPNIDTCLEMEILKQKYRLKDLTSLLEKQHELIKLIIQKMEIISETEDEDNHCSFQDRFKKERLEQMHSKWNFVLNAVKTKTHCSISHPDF
Sequence of Transient receptor potential cation channel subfamily A member 1 (Mus musculus) (Q8BLA8 whole entry): as above

As to `COCCCN(C(=O)CCl)c1nc(-c2ccc(OC)cc2)cs1`, the Activity entry in data set [1] is given as “Non-toxic”; in [6], “Toxic”. Further, the EC50 (as a rule, the midpoint of the concentration-response curve) in [2] amounted to 0.00648 µM; in data set [3], 5.26 µM. In the data set on Mus musculus [4], the result was Active. Besides, the Ratio EC50 in data set [5] is 1000.
On to `CCCCCNc1nc(-c2ccc(O)cc2)cs1`, for which the result in [7] was Active.
Still for that read-out and setting: the value for `COCCCNc1cc(-c2ccc(C)cc2)cs1` was “Active”.
Take `S=C=NCc1ccccc1`: the TIME in data set [8] is 0.0179 h.
Turning to `C=CCN=C=S` [ALLYL ISOTHIOCYANATE], the Activity in [9] was 102 pS; in data set [6], “Toxic”; in [10] it was 0.15.
On to `CC(C)Cc1ccc(C(C)C(=O)O)cc1` (stereo not given) [IBUPROFEN], for which the Activity in the data set with Mus musculus [11] is reported as 1.2 g; in the data set with Mus musculus [12] it was 1.32 g; in the data set on Mus musculus [18], 1.84 g; in the data set with Mus musculus [19], 0.42 g; with Mus musculus [20] it was 0.69 g; in the data set with Mus musculus [23] it was 0.22 g. Also, the Time was 15.46 s in the data set on Mus musculus [13]; 15.72 s in the data set with Mus musculus [14]; 31.26 s in the data set with Mus musculus [16]; 20.73 s in the data set on Mus musculus [17]; 14.03 s in the data set with Mus musculus [21]. For the same compound, the outcome in the data set with Mus musculus [15] and with Mus musculus [22] was Active.
